{"source": "patent US10493153B2", "about": "“Alkylated photoremovable protecting groups and uses thereof” (Iowa State University Research Foundation, Inc., priority 2018, dated 2019)", "assay_type_in_all_cases": "physicochemical", "key": {"[1]": {"test": "Fluorescence emission spectroscopy", "details": "emission maximum", "from_the_text": "(§1) All manipulation with photosensitive samples were accomplished under the red light (λ>600 nm). In the spectroscopy measurements, the lowest possible intensity of incident light was used; the spectroscopic identity of the samples was confirmed after each measurement to ensure that no unwanted photodegradation processes occurred. All measurements were accomplished using fresh solutions prepared in the dark. ^1H and ^13C NMR spectra were obtained in CDCl3 on 101, 125, 400 and 500 MHz spectrometers. ^1H chemical shifts are reported in ppm relative to the tetramethylsilane signal (TMS, δ=0.00 ppm), using the residual solvent signal as an internal reference. ^13C NMR chemical shifts are reported in ppm relative to the CDCl3 signal as an internal standard. IR spectra were recorded on an FTIR spectrophotometer. Mass spectra (MS) and high resolution mass spectra (HRMS) were recorded using an ESI and APCI techniques. Absorption spectra and the molar absorption coefficients were obtained on a UV-vis spectrometer with matched 1.0-cm quartz cells. […] A nanosecond flash lamp (filled with H2) was used to determine the fluorescence lifetimes. The data obtained were deconvolved from the measured decay curves of the sample and the instrumental response function. The quantum yields of fluorescence were obtained using a calibrated integration sphere."}, "[2]": {"test": "UV-Vis absorption spectroscopy (absorption maximum, extinction coefficient)", "details": "for λmax: absorption maximum, UV-vis; for ε (extinction coefficient): determined by UV-Vis spectroscopy, in M-1cm-1 (unit assumed)", "from_the_text": "as §1\n(§2) The observed substrate release rate as a function of photolysis time is quantified by the quantum efficiency parameter (εϕ), which is the product of the extinction coefficient at the irradiation wavelength (E) and the quantum yield (ϕ). Extinction coefficients for compounds 1-7 were determined by UV-Vis spectroscopy (see Table 1)."}, "[3]": {"test": "Quantum yield and quantum efficiency of photorelease on irradiation", "details": "for εΦ (quantum efficiency): product of extinction coefficient and quantum yield; for Φ (quantum yield): solutions in methanol, λirr 365, 490, 507 nm", "method": "A solution of the given compound (3.0 mL) in a matched 1.0 cm quartz PTFE screw-cap fluorescence cuvette equipped with a stir bar was irradiated with a light source (32 LEDs emitting at the selected wavelength: λmax=365, 490, 507 nm; the bandwidths at half height=30 nm; high-pressure 450 W mercury-xenon arc lamp with a monochromator with 200-1600 nm grating set to 365±0.5 nm). The reaction progress was monitored by UV-vis spectrometry using a diode-array spectrophotometer in a kinetic mode.\nPhotodegradation quantum yields for both aerated and degassed (freeze-pump-thaw technique; 3 cycles) solutions in methanol were determined at λirr=365 (LEDs and mercury-xenon arc lamp), 490 nm (LEDs), and 507 nm (LEDs) with xanthene-9-carboxylic acidl and BODIPY-CORM2 as actinometers; most values were cross-checked using ferrioxalate3 at λirr=365 nm. The data were processed using single value decomposition (SVD) software assuming the first-order rate law. The amount of absorbed light was calculated from the whole emission spectrum of the light source. […] All quantum yield measurements were repeated at least 6 times with independently prepared samples.\nas §2"}}, "data": [{"molecule": "2,6-Diiodo-4,4′-dimethyl-8-chloro ethyl-1,3,5,7-tetramethyl-4-bora-3a,4a-diaza-s-indacene [Compound 5]", "values": [{"measurement": "λem", "setting": "[1]", "value": 573, "unit": "nm"}, {"measurement": "λmax", "setting": "[2]", "value": 542, "unit": "nm"}, {"measurement": "ε (extinction coefficient)", "setting": "[2]", "value": "62,400"}, {"measurement": "εΦ (quantum efficiency)", "setting": "[3]", "value": "59,280 M^−1cm^−1"}, {"measurement": "Φ (quantum yield)", "setting": "[3]", "value": 0.95}]}, {"molecule": "CC1=CC(C)=[N+]2C1=C(CCl)c1c(C)cc(C)n1[B-]2(C)C", "note": "[Compound 1, 4,4′-Dimethyl-8-chloromethyl-1,3,5,7-tetramethyl-4-bora-3a,4a-diaza-s-indacene]", "values": [{"measurement": "λem", "setting": "[1]", "value": 556, "unit": "nm"}, {"measurement": "λmax", "setting": "[2]", "value": 519, "unit": "nm"}, {"measurement": "ε (extinction coefficient)", "setting": "[2]", "value": "60,580"}, {"measurement": "εΦ (quantum efficiency)", "setting": "[3]", "value": "41,194 M^−1cm^−1"}, {"measurement": "Φ (quantum yield)", "setting": "[3]", "value": 0.68}]}, {"molecule": "CC1=CC(C)=[N+]2C1=C(COC(=O)Cc1ccccc1)c1c(C)cc(C)n1[B-]2(C)C", "note": "[Compound 2, 4,4′-Dimethyl-8-methyl(2-phenylacetate)-1,3,5,7-tetramethyl-4-bora-3a,4a-diaza-s-indacene]", "values": [{"measurement": "λem", "setting": "[1]", "value": 550, "unit": "nm"}, {"measurement": "λmax", "setting": "[2]", "value": 512, "unit": "nm"}, {"measurement": "ε (extinction coefficient)", "setting": "[2]", "value": "68,500"}, {"measurement": "εΦ (quantum efficiency)", "setting": "[3]", "value": "7,398 M^−1cm^−1"}, {"measurement": "Φ (quantum yield)", "setting": "[3]", "value": 0.11}]}, {"molecule": "CC[B-]1(CC)n2c(C)cc(C)c2C(COC(=O)Cc2ccccc2)=C2C(C)=CC(C)=[N+]21", "note": "[Compound 3, 4,4′-Diethyl-8-methyl-(2-phenylacetate)-1,3,5,7-tetramethyl-4-bora-3a,4a-diaza-s-indacene]", "values": [{"measurement": "λem", "setting": "[1]", "value": 550, "unit": "nm"}, {"measurement": "λmax", "setting": "[2]", "value": 513, "unit": "nm"}, {"measurement": "ε (extinction coefficient)", "setting": "[2]", "value": "55,300"}, {"measurement": "εΦ (quantum efficiency)", "setting": "[3]", "value": "4,424 M^−1cm^−1"}, {"measurement": "Φ (quantum yield)", "setting": "[3]", "value": 0.08}]}, {"molecule": "CC1=CC(C)=[N+]2C1=C(COC(=O)Cc1ccccc1)c1c(C)cc(C)n1[B-]2(c1ccccc1)c1ccccc1", "note": "[Compound 4, 4,4′-Diphenyl-8-methyl-(2-phenylacetate)-1,3,5,7-tetramethyl-4-bora-3a,4a-diaza-s-indacene]", "values": [{"measurement": "λem", "setting": "[1]", "value": 562, "unit": "nm"}, {"measurement": "λmax", "setting": "[2]", "value": 517, "unit": "nm"}, {"measurement": "ε (extinction coefficient)", "setting": "[2]", "value": "58,300"}, {"measurement": "εΦ (quantum efficiency)", "setting": "[3]", "value": 583, "unit": "M⁻¹ cm⁻¹"}, {"measurement": "Φ (quantum yield)", "setting": "[3]", "value": 0.01}]}, {"molecule": "CC1=C(I)C(C)=[N+]2C1=C(COC(=O)Cc1ccccc1)c1c(C)c(I)c(C)n1[B-]2(C)C", "note": "[Compound 6, 2,6-Diiodo-4,4′-dimethyl-8-methyl-(2-phenylacetate)-1,3,5,7-tetramethyl-4-bora-3a,4a-diaza-s-indacene]", "values": [{"measurement": "λem", "setting": "[1]", "value": 572, "unit": "nm"}, {"measurement": "λmax", "setting": "[2]", "value": 538, "unit": "nm"}, {"measurement": "ε (extinction coefficient)", "setting": "[2]", "value": "60,700"}, {"measurement": "εΦ (quantum efficiency)", "setting": "[3]", "value": "16,996 M^−1cm^−1"}, {"measurement": "Φ (quantum yield)", "setting": "[3]", "value": 0.28}]}]}
